The values below come from US10251889B2, “Substituted pyrazolo[1,5-a]pyrimidine compounds as Trk kinase inhibitors” (Array BioPharma, Inc., priority 2009, dated 2019).

Each structure is given as a SMILES string. Read-outs that look alike come from different tables or passages of the source.

Holding throughout (assay type): biochemical
For test [1], the target named is Jak1 (GST-tagged human Jak1 kinase domain, amino acids 866-1154) (Homo sapiens (Human), UniProt P23458). As to the kind of experiment: Jak1 inhibition assay (Omnia kinase assay). As to conditions: read-out: Jak1 (% inhibition at 1000 nM); Table 2; 1000 nM test compound. The method, then:
(§1) The assays described in Examples C, D, E and F for the determination of JAK1, JAK2, JAK3 and Tyk2 kinase activity, respectively, utilized the Omnia® Kinase fluorescence peptide substrate-based technology (Invitrogen). […] The reactions were therefore read at excitation 360 nm and emission was measured at 485 nm every 50 seconds for 45 minutes using a PerkinElmer EnVision Multilabel Plate Reader.
(§2) The final buffer conditions for each of the JAK1, JAK2, JAK3 and Tyk2 assays were as follows: 25 mM HEPES, pH 7.4, 10 mM MgCl2, 0.01% Triton X-100 and 1 mM DTT.
(§3) Compounds were prepared at 50× the final concentration in DMSO by conducting 3-fold serial dilutions from a 500-μM or 1000-μM intermediate dilution to give a 10-point dosing curve having a high dose of 10 or 20 μM. Two-μL aliquots of these were transferred to a fresh plate for a ten-fold intermediate dilution with assay buffer. Five-μL aliquots of the diluted compounds were then transferred to 20-μL of assay mixtures described in Examples C, D, E and F for a final concentration of DMSO of 2%. A standard or reference compound was typically included on each assay plate to validate that plate. For each plate, percent of control (POC) values were calculated for each well according to the following equation:
(§4) where Xmax=Average Uninhibited Controls • Xmin=Average Background IC50's were estimated from the POC's using a standard 4-parameter logistic model:
(§5) where A=Minimum Y (Bottom Asymptote) • B=Maximum Y (Top Asymptote) • C=EC50 • D=Slope Factor • X=Compound Concentration (nM) • Y=POC
(§6) The IC50 is defined as the concentration of inhibitor at which the POC equals 50 for the fitted curve.
Compounds of Formula I were screened for their ability to inhibit Jak1 using the general enzyme inhibition assay method, in which the assay mixture contained 500 μM ATP, 8 μM Omnia® Y12 peptide (Catalog # IVGN KPZ3121C; Invitrogen Corporation, Carlsbad, Calif.) and 5 nM Jak1 in a total volume of 20 μL. […] (catalog # IVGN PV4774).

Test [2] has as its target Tyk2 (human Tyk2 kinase domain, amino acids 886 to 1187) (Homo sapiens (Human), UniProt P29597). The test can be described thus: Tyk2 inhibition assay (Omnia kinase assay). The settings on record: read-out: Tyk2 (% inhibition at 1000 nM); Table 2; 1000 nM test compound. The method, then: as §1, §2, §3, §4, §5, §6
Compounds of Formula I were screened for their ability to inhibit Tyk2 using the general enzyme inhibition assay method, in which the assay mixture contained 500 μM ATP, 8 μM Omnia® Y12 peptide (Catalog # IVGN KPZ3121C; Invitrogen Corporation, Carlsbad, Calif.) and 1 nM Tyk2 in a total volume of 20 μL. Human Tyk2 kinase domain, comprising amino acids 886 to 1187 with 10 additional histidine residues (histidine tag) on the carboxy terminus, was expressed and purified from baculovirus in-house at Array BioPharma Inc. (Boulder, Colo.). The histidine tag was cleaved after purification using standard conditions.

Test [3] deals with Jak2 (human Jak2 kinase domain, amino acids 808-1132) (Homo sapiens (Human), UniProt O60674). As to the kind of experiment: Jak2 inhibition assay (Omnia kinase assay). As to conditions: 1000 nM test compound.
Jak2 (human Jak2 kinase domain, amino acids 808-1132), sequence (O60674 808-1132): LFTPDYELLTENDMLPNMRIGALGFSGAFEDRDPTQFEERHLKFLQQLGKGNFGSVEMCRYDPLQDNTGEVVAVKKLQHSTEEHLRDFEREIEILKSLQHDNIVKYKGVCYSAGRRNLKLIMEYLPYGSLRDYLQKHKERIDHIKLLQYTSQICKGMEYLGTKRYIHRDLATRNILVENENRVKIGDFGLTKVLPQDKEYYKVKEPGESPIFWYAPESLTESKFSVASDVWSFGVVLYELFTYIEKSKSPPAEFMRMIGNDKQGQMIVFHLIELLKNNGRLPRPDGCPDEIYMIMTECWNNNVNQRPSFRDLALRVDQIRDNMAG
The target of test [4] is Jak3 (GST-tagged human Jak3 kinase domain, amino acids 781-1124) (Homo sapiens (Human), UniProt P52333). The test can be described thus: Jak3 inhibition assay (Omnia kinase assay). The settings on record: read-out: Jak3 (% inhibition at 1000 nM); Table 2; 1000 nM test compound. The method, then: as §1, §2, §3, §4, §5, §6
Jak3 (GST-tagged human Jak3 kinase domain, amino acids 781-1124), sequence (P52333 781-1124): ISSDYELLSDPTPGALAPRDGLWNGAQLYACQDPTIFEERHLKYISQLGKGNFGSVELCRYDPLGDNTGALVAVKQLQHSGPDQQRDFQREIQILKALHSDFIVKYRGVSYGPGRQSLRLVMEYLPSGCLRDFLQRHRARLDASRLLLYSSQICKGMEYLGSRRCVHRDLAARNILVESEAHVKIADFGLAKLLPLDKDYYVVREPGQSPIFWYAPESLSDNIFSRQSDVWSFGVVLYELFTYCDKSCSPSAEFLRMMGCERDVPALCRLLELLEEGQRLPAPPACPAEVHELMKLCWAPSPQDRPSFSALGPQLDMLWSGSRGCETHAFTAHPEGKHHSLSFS
Compounds of Formula I were screened for their ability to inhibit Jak3 using the general enzyme inhibition assay method, in which the assay mixture contained 500 μM ATP, 10 μM Omnia® Y7 peptide (Catalog # IVGN KNZ3071C, Invitrogen Corporation, Carlsbad, Calif.) and 1.5 nM Jak3 in a total volume of 20 μL. GST-tagged human Jak3 kinase domain comprising amino acids 781-1124 was purchased from Invitrogen Corporation, Carlsbad, Calif. (catalog # IVGN PV3855).

The mark [5] stands for this setting: read-out: Jak2 (% inhibition at 1000 nM), Table 2.
Setting [6] is: read-out: Jak2 Enzyme (% inhibition at 1000 nM), Table 1.

One may read the inhibition as the relative decrease from the control value, in per cent.

Tyk2 (human Tyk2 kinase domain, amino acids 886 to 1187), sequence (P29597 886-1187): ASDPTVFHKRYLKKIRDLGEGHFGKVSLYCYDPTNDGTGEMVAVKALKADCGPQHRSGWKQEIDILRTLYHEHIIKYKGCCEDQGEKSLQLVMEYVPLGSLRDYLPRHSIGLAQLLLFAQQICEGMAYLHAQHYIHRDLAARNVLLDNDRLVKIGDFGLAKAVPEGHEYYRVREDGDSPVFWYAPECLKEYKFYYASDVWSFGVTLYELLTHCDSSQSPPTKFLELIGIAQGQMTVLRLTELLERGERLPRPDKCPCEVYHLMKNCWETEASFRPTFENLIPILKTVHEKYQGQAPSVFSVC
Jak1 (GST-tagged human Jak1 kinase domain, amino acids 866-1154), sequence (P23458 866-1154): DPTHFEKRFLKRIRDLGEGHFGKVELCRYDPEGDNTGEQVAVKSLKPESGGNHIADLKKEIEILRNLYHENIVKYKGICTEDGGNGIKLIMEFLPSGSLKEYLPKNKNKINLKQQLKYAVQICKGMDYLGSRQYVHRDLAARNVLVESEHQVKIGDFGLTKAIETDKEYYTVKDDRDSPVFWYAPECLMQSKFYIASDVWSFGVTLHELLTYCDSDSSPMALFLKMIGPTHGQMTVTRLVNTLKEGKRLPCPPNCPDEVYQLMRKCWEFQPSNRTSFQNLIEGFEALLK

Turning to `COc1ncc(F)cc1[C@H]1CCCN1c1ccn2ncc(C(=O)N[C@H]3CC[C@H](O)CC3)c2n1` [Example 140, 5-((R)-2-(5-fluoro-2-methoxypyridin-3-yl)pyrrolidin-1-yl)-N-((trans)-4-hydroxycyclohexyl)pyrazolo[1,5-a]pyrimidine-3-carboxamide], the inhibition at 1 µM came to 64.2% in test [1]; 34.8% in test [2]; 98.5% in test [3] (setting [5]); 90.1% in test [3] (setting [6]); 20.2% in test [4].
Take `CC(C)NC(=O)c1cnn2ccc(N3CCC[C@@H]3c3cncc(F)c3)nc12` [Example 93, (R)-5-(2-(5-fluoropyridin-3-yl)pyrrolidin-1-yl)-N-isopropylpyrazolo[1,5-a]pyrimidine-3-carboxamide]: the inhibition at 1 µM in test [1] was determined as 19.7%; in test [2], 17.2%; in test [3] (setting [5]), 42.2%; in test [3] (setting [6]), 34.7%; in test [4], 10.6%.
In the case of `O=C(NC1(C(F)(F)F)CC1)c1cnn2ccc(N3CCC[C@@H]3c3cncc(F)c3)nc12` [Example 98, (R)-5-(2-(5-fluoropyridin-3-yl)pyrrolidin-1-yl)-N-(1-(trifluoromethyl)cyclopropyl)pyrazolo[1,5-a]pyrimidine-3-carboxamide], the inhibition at 1 µM in test [1] came to 8.8%; in test [2] it was 9.2%; in test [3] (setting [5]), 27.8%; in test [3] (setting [6]) it was 23.7%; in test [4] it was 5.5%.
Consider `O=C(NCC1CC1)c1cnn2ccc(N3CCC[C@@H]3c3cncc(F)c3)nc12` [Example 106, (R)-N-(cyclopropylmethyl)-5-(2-(5-fluoropyridin-3-yl)pyrrolidin-1-yl)pyrazolo[1,5-a]pyrimidine-3-carboxamide], for which the inhibition at 1 µM in test [1] was 8.2%; in test [2] it was 14.8%; in test [3] (setting [5]) it was 21%; in test [3] (setting [6]), 8%; in test [4], 9.7%.
Take `O=C(NC1CC1)c1cnn2ccc(N3CCC[C@@H]3c3cncc(F)c3)nc12` [Example 52, (R)—N-cyclopropyl-5-(2-(5-fluoropyridin-3-yl)pyrrolidin-1-yl)pyrazolo[1,5-a]pyrimidine-3-carboxamide]: the inhibition at 1 µM in test [1] worked out at 8.6%; in test [2], 13.8%; in test [3] (setting [5]), 13%; in test [3] (setting [6]), 9.4%; in test [4] it was 0.8%.
Turning to `Cc1ncc(F)cc1[C@H]1CCCN1c1ccn2ncc(C(=O)N[C@H]3CC[C@H](O)CC3)c2n1` [Example 194, 5-((R)-2-(5-fluoro-2-methylpyridin-3-yl)pyrrolidin-1-yl)-N-((trans)-4-hydroxycyclohexyl)pyrazolo[1,5-a]pyrimidine-3-carboxamide], the inhibition at 1 µM was determined as 7.4% in test [1]; 8.1% in test [2]; 37.6% in test [3] (setting [5]); 31.2% in test [3] (setting [6]); 2.6% in test [4].
For the molecule `C[C@@H](NC(=O)c1cnn2ccc(N3CCC[C@@H]3c3cncc(F)c3)nc12)C1CC1` [Example 123, N-((R)-1-cyclopropylethyl)-5-((R)-2-(5-fluoropyridin-3-yl)pyrrolidin-1-yl)pyrazolo[1,5-a]pyrimidine-3-carboxamide], the inhibition at 1 µM in test [1] was found to be 22%; in test [2], 14.4%; in test [3] (setting [5]), 49.1%; in test [3] (setting [6]) it was 38.8%; in test [4], 8.9%.
With `Cc1ncc(F)cc1[C@H]1CCCN1c1ccn2ncc(C(=O)NC3(C)CC3)c2n1` [Example 190, (R)-5-(2-(5-fluoro-2-methylpyridin-3-yl)pyrrolidin-1-yl)-N-(1-methylcyclopropyl)pyrazolo[1,5-a]pyrimidine-3-carboxamide], the inhibition at 1 µM in test [1] worked out at 14.3%; in test [2], 13.4%; in test [3] (setting [5]) it was 33.9%; in test [3] (setting [6]), 28.4%; in test [4], 7.2%.
Consider `COc1ncc(F)cc1[C@H]1CCCN1c1ccn2ncc(C(=O)NC(C)(C)C)c2n1` [Example 80, (R)—N-tert-butyl-5-(2-(5-fluoro-2-methoxypyridin-3-yl)pyrrolidin-1-yl)pyrazolo[1,5-a]pyrimidine-3-carboxamide], for which, in test [3] (setting [6]), the inhibition at 1 µM stood at 50.7%.
As for `CONC(=O)c1cnn2ccc(N3CCC[C@@H]3c3cncc(F)c3)nc12` [Example 73, (R)-5-(2-(5-fluoropyridin-3-yl)pyrrolidin-1-yl)-N-methoxypyrazolo[1,5-a]pyrimidine-3-carboxamide], in test [3] (setting [6]), the inhibition at 1 µM turned out to be 4.9%.
The same measure, in the same setting: the result for `CNC(=O)c1cnn2ccc(N3C[C@H](O)C[C@@H]3c3cccc(F)c3)nc12` [Example 43, 5-((2R,4R)-2-(3-fluorophenyl)-4-hydroxypyrrolidin-1-yl)-N-methylpyrazolo[1,5-a]pyrimidine-3-carboxamide] reads 4.2%.
For the molecule `O=C(NOCCO)c1cnn2ccc(N3CCC[C@@H]3c3cc(F)cnc3Cl)nc12` [Example 225, (R)-5-(2-(2-chloro-5-fluoropyridin-3-yl)pyrrolidin-1-yl)-N-(2-hydroxyethoxy)pyrazolo[1,5-a]pyrimidine-3-carboxamide], in test [3] (setting [6]), the inhibition at 1 µM was 2.7%.
On to `CC(C)NC(=O)c1cnn2ccc(N3[C@@H](c4cncc(F)c4)CC[C@@]3(C)CO)nc12` [Example 219, 5-((2 S, 5R)-5-(5-fluoropyridin-3-yl)-2-(hydroxymethyl)-2-methylpyrrolidin-1-yl)-N-isopropylpyrazolo[1,5-a]pyrimidine-3-carboxamide], for which the inhibition at 1 µM in test [3] (setting [6]) was 25.5%.
Take `Cc1ncc(F)cc1[C@H]1CCCN1c1ccn2ncc(C(=O)N[C@@H]3CCC[C@H]3O)c2n1` [Example 197, 5-((R)-2-(5-fluoro-2-methylpyridin-3-yl)pyrrolidin-1-yl)-N-((1R,2R)-2-hydroxycyclopentyl)pyrazolo[1,5-a]pyrimidine-3-carboxamide]: the inhibition at 1 µM in test [3] (setting [6]) worked out at 3.6%.
On to `CC1(O)CN(C(=O)c2cnn3ccc(N4CCC[C@@H]4c4cc(F)ccc4F)nc23)C1` [Example 32, (R)-(5-(2-(2,5-difluorophenyl)pyrrolidin-1-yl)pyrazolo[1,5-a]pyrimidin-3-yl)(3-hydroxy-3-methylazetidin-1-yl)methanone], for which the inhibition at 1 µM in test [3] (setting [6]) came to 8.6%.
Turning to `O=C(NC[C@@H](O)CO)c1cnn2ccc(N3CCC[C@@H]3c3cc(F)ccc3C(F)(F)F)nc12` [Example 63, N—((R)-2,3-dihydroxypropyl)-5-((R)-2-(5-fluoro-2-(trifluoromethyl)phenyl)pyrrolidin-1-yl)pyrazolo[1,5-a]pyrimidine-3-carboxamide], the inhibition at 1 µM in test [3] (setting [6]) was determined as 33.1%.
Regarding `O=C(NC1CC1)c1cnn2ccc(N3CCC[C@@H]3c3cc(F)cc(OCCN4CCOCC4)c3)nc12` [Example 85, (R)—N-cyclopropyl-5-(2-(3-fluoro-5-(2-morpholinoethoxy)phenyl)pyrrolidin-1-yl)pyrazolo[1,5-a]pyrimidine-3-carboxamide], the inhibition at 1 µM in test [3] (setting [6]) came to 6%.
For the molecule `C[C@@H](NC(=O)c1cnn2ccc(N3CCC[C@@H]3c3cc(F)cn(C)c3=O)nc12)C1CC1` [Example 235, N-((R)-1-cyclopropylethyl)-5-((R)-2-(5-fluoro-1-methyl-2-oxo-1,2-dihydropyridin-3-yl)pyrrolidin-1-yl)pyrazolo[1,5-a]pyrimidine-3-carboxamide], the inhibition at 1 µM in test [3] (setting [6]) was found to be 73.1%.
